These results are taken from US6703395B2, “Cyclin dependent kinase inhibitor” (priority 1998, dated 2004).

The structures appear in SMILES notation.

The test system of data set [1] is B16 melanoma. Kind of data set: In vivo antitumor activity, subcutaneously inoculated B16 melanoma. The following applies: C57BL-10 mice, 1 mg subcutaneously 4x daily for 7 days.
The subject of a further data set is L1210 leukemia. Nature of the data set: MTT in vitro cytotoxicity assay, L1210. It is filed as cell-based, mouse. The source says:
(§1) One of the parameters used as the basis for colorimetric assays is the metabolic activity of viable cells. For example, a microtiter assay which uses the tetrazolium salt 3-[4,5-Dimethylthiazol-2-yl]-2,5-diphenyltetrazolium bromide; Thiazolyl blue (hereinafter MTT) is now widely used to quantitate cell proliferation and cytotoxicity, for instance, in drug screening programs and in chemosensitivity testing. Because tetrazolium salts are cleaved only by metabolically active cells, these assays detect viable cells exclusively. In the case of the MTT-assay, yellow soluble tetrazolium salt is reduced to colored water-insoluble formazan salt. After it is solubilized, the formazan formed can easily and rapidly be quantified in a conventional ELISA plate reader at 570 nm (maximum absorbance). The quantity of reduced formazan corresponds to number of vital cells in the culture. […]
(§2) The cell suspensions that were prepared and diluted according to the particular cell type and the expected target cell density (2,500-30,000 cells per well based on cell growth characteristics) were added by pipet (80 μl) into 96 well microtiter plates. […] Usually, test compound were evaluated at six 4-fold dilutions. […] The optical density (OD) was measured at 540 nm with the Labsystem iEMS Reader MF (UK). […]

The test system of data set [2] is B16 melanoma. Kind of data set: MTT in vitro cytotoxicity assay, B16. Type of data set: cell-based, mouse.
Excerpt: as §1, §2

In a further data set the test system is normal human lymphocytes. Kind of data set: MTT in vitro cytotoxicity assay, lymphocytes. It is filed as cell-based. The following applies: 72 hours incubation. The text has this:
(§3) One of the parameters used as the basis for colorimetric assays is the metabolic activity of viable cells. For example, a microtiter assay which uses the tetrazolium salt 3-[4,5-Dimethylthiazol-2-yl]-2,5-diphenyltetrazolium bromide; Thiazolyl blue (hereinafter MTT) is now widely used to quantitate cell proliferation and cytotoxicity, for instance, in drug screening programs and in chemosensitivity testing. Because tetrazolium salts are cleaved only by metabolically active cells, these assays detect viable cells exclusively. In the case of the MTT-assay, yellow soluble tetrazolium salt is reduced to colored water-insoluble formazan salt. After it is solubilized, the formazan formed can easily and rapidly be quantified in a conventional ELISA plate reader at 570 nm (maximum absorbance). The quantity of reduced formazan corresponds to number of vital cells in the culture.
(§4) The cell suspensions that were prepared and diluted according to the particular cell type and the expected target cell density (2,500-30,000 cells per well based on cell growth characteristics) were added by pipet (80 μl) into 96 well microtiter plates. Inoculates were allowed a preincubation period of 24 hours at 37° C. and 5% CO2 for stabilization. […] Usually, test compound were evaluated at six 4-fold dilutions. […] The optical density (OD) was measured at 540 nm with the Labsystem iEMS Reader MF (UK). […]

The subject of data set [3] is human breast carcinoma cell line MCF-7. Kind of data set: MTT in vitro cytotoxicity assay, MCF7. It is filed as cell-based.
Excerpt: as §1, §2

Data set [4] has as its system mouse immortalized bone marrow macrophages B10A.4. Nature of the data set: MTT in vitro cytotoxicity assay, B10#4. It is filed as cell-based.
Excerpt: as §1, §2

For data set [5], the system named is P388D1 leukemia. Kind of data set: In vivo antitumor activity, intraperitoneally transplanted P388D1 leukemia. The following applies: DBA-2 mice, 1 mg 4x daily for 7 days.
Another data set has as its system U937. Kind of data set: MTT in vitro cytotoxicity assay, U937. Type of data set: cell-based.
Excerpt: as §3, §4

A further data set relates to tumor cell lines. Nature of the data set: MTT in vitro cytotoxicity, panel of tumor cell lines. Type of data set: cell-based. The conditions noted are these: summary of Table 1.
Excerpt: as §1, §2

For a further data set, the system named is mouse fibroblasts NIH3T3. Kind of data set: MTT in vitro cytotoxicity assay, NIH3T3. Type of data set: cell-based.
Excerpt: as §1, §2

The test system of data set [6] is P388D1 leukemia. Kind of data set: MTT in vitro cytotoxicity assay, P388D1. Type of data set: cell-based, mouse.
Excerpt: as §1, §2

Data set [7] has as its system Human T-lymphoblastic leukemia cell line CEM. Kind of data set: MTT in vitro cytotoxicity assay, CEM. The following applies: 72 hours incubation. It is filed as cell-based.
Excerpt: as §1, §2

Data set [8] relates to promyelocytic leukemia HL-60. Kind of data set: MTT in vitro cytotoxicity assay, HL-60. Type of data set: cell-based, human.
Excerpt: as §1, §2

In data set [9] the test system is mouse immortalized bone marrow macrophages B2.4. Nature of the data set: MTT in vitro cytotoxicity assay, B2#4. Type of data set: cell-based. The conditions noted are these: 72 hours incubation.
Excerpt: as §1, §2

The subject of a further data set is B16F10 melanoma. Kind of data set: MTT in vitro cytotoxicity assay, B16F10. It is filed as cell-based, mouse.
Excerpt: as §1, §2

Data set [10] relates to cervical carcinoma cells HELA. Nature of the data set: MTT in vitro cytotoxicity assay, HELA. The following applies: 72 hours incubation. It is filed as cell-based.
Excerpt: as §1, §2

The conditions of data set [11]: mouse.
Procedure: in vivo anti-cancer activity assays: water insoluble compounds: 50% DMSO, 10 mM HCl in saline.
Cells were trypsinized, washed in PBS and suspended in PBS with 0.5% bovine serum albumin. 0.5 miilion cells from this suspension was applied subcutaneously to C57BL-10 mice. […] The compounds (1 mg) were applied subcutaneously 4× daily, for 7 days.
Cells were scraped, washed in PBS and suspended in PBS with 0.5% bovine serum albumin. 0.5 million cells from this suspension was applied intraperitoneally to DBA-2 mice. […] The compounds (1 mg) were applied subcutaneously 4× daily, for 7 days.
Data set [12] concerns CEM cells. Kind of data set: Apoptosis by phase contrast and electron microscopy. Type of data set: cell-based, human. The following applies: 50 μm, 8 hours (FIG. 3).
Data set [13] relates to CEM cells. Nature of the data set: Apoptosis and cell cycle analysis by FACS (DNA content). The conditions noted are these: 50 μm (FIG. 4), method 70 μM, 3-24 hours. It is filed as cell-based, human. The protocol:
Cells (1×10^6/ml) were cultured in 6-well plates with or without 70 μM concentration of test compound at 37° C. and 5% CO2 for 3-24 hours. Following incubation, cells were pelleted, washed in Hank's buffered salt solution and fixed in 96% ethanol overnight at −20° C. Low molecular weight apoptotic DNA was extracted in citrate buffer. RNA was cleaved using RNAse (50 mg/ml).

As for `CC(C)=CCNc1ncnc2nc[nH]c12` [IP, isopentenyladenine], the “in vivo activity, B16 melanoma model (medium survival time)” value in the data set with B16 melanoma [1] is listed as “no activity”. The IC50 (with L1210 leukemia (72 hours incubation); in the data set with B16 melanoma [2] (72 hours incubation); with normal human lymphocytes; in data set [3] (72 hours incubation); in [4] (72 hours incubation); in the data set with U937 (72 hours incubation)) was 267 µM throughout. In addition, the IC50 in the data set on mouse fibroblasts NIH3T3 (72 hours incubation) stood at 267 µM; in the data set with P388D1 leukemia [6] (72 hours incubation), 267 µM; in data set [7], 169 µM; in [8] (72 hours incubation), 157 µM; in data set [9], 267 µM; with B16F10 melanoma (72 hours incubation) it was 267 µM. Half-maximal inhibition in data set [10] (IC50) was put at 267 µM. Moreover, in the data set on P388D1 leukemia [5], the “in vivo activity, P388D1 leukemia model (survival)” value is listed as “no activity”. Also, in the data set on tumor cell lines, the “toxicity to tumor cells (in words)” value is “did not show significant toxicity”. In addition, the “toxicity in vivo / tissue necrosis at the site of application” value in data set [11] was “no activity and toxicity”.
As to `Cn1cnc2c(NCc3ccccc3)nc(NCCO)nc21` [OC, 2-(2-hydroxyethylamino)-6-benzylamino-9-methylpurine], the “in vivo activity, B16 melanoma model (medium survival time)” value in the data set on B16 melanoma [1] is “significant in vivo activity”. For the same compound, the IC50 came to 23.5 µM with L1210 leukemia (Mus musculus, L1210, 72 hours incubation); 50.4 µM in the data set on B16 melanoma [2] (Mus musculus, B16, 72 hours incubation); 267 µM with normal human lymphocytes (Homo sapiens, Lymphocyte); 30.5 µM in data set [3] (Homo sapiens, MCF7, 72 hours incubation); 20.3 µM in data set [4] (Mus musculus, B104, 72 hours incubation); 63.8 µM in the data set with U937 (Homo sapiens, U-937, 72 hours incubation). In addition, the IC50 is 267 µM with mouse fibroblasts NIH3T3 (Mus musculus, NIH3T3, 72 hours incubation); 14.5 µM in the data set with P388D1 leukemia [6] (Mus musculus, P388D1, 72 hours incubation); 20.7 µM in data set [7] (Homo sapiens); 28.9 µM in data set [8] (Homo sapiens, HL-60, 72 hours incubation); 8.1 µM in [9] (Mus musculus, Bone marrow macrophage); 20.6 µM with B16F10 melanoma (Mus musculus, B16-F10, 72 hours incubation). This compound also had an IC50 in data set [10] (Homo sapiens, HeLa) of 100 µM. In the data set on P388D1 leukemia [5], the “in vivo activity, P388D1 leukemia model (survival)” value is “significant in vivo activity”. Also, in the data set with tumor cell lines, the “toxicity to tumor cells (in words)” value was “moderately effective”. In addition, the “apoptosis by phase contrast / electron microscopy” value in the data set on CEM cells [12] was “apoptosis had occurred”.
`CCC(CO)Nc1nc(NCc2ccccc2)c2ncn(C(C)C)c2n1` (stereo not drawn) [ROSC, 2-[(1-ethyl-2-hydroxyethyl)amino]-6-benzylamino-9-isopropylpurine]: the “apoptosis by phase contrast / electron microscopy” value in the data set on CEM cells [12] is reported as “apoptosis had occurred”. The “apoptosis by flow cytometric analysis of DNA content” value with CEM cells [13] is on record as “Extensive apoptosis”.
